Results from patent publication US20090304692A1, “TRIAZINE COMPOUNDS AS PI3 KINASE AND MTOR INHIBITORS” (Wyeth, priority 2008, published 2009).
Where two headings read alike, the source gives them in different places.

Columns and labels:
Human mTOR (FLAG-TOR) = Human mTOR (FLAG-TOR) (Homo sapiens, UniProt P42345); assay: mTOR kinase assay (DELFIA format, purified enzyme); assay type: biochemical; details: read-out: IC50 mTOR
[1] = tested on: human breast MDA-MB-361 tumor cell line; assay: In vitro cell culture growth assay (MTS), MDA-MB-361; assay type: cell-based; details: Homo sapiens, MTS cell growth assay, three days after drug treatment, MDA-MB-361 cells, read-out: IC50 MDA-MB-361
[2] = tested on: human prostate PC3-mm2 tumor cell line; assay: In vitro cell culture growth assay (MTS), PC3-mm2; assay type: cell-based; details: Homo sapiens, PC3MM2, 72 h, MTS cell growth assay, three days after drug treatment, PC3-mm2 cells; read-out: IC50 PC3-mm2
PI3K-α = PI3K-α (Homo sapiens, UniProt P42336); assay: PI3K-alpha fluorescence polarization assay; details: read-out: IC50 PI3Kα
PI3K-γ = PI3K-γ (Homo sapiens, UniProt P48736); assay: PI3K-gamma fluorescence polarization assay; details: read-out: IC50 PI3Kγ
Sequence of PI3K-γ (P48736 whole entry, species assumed): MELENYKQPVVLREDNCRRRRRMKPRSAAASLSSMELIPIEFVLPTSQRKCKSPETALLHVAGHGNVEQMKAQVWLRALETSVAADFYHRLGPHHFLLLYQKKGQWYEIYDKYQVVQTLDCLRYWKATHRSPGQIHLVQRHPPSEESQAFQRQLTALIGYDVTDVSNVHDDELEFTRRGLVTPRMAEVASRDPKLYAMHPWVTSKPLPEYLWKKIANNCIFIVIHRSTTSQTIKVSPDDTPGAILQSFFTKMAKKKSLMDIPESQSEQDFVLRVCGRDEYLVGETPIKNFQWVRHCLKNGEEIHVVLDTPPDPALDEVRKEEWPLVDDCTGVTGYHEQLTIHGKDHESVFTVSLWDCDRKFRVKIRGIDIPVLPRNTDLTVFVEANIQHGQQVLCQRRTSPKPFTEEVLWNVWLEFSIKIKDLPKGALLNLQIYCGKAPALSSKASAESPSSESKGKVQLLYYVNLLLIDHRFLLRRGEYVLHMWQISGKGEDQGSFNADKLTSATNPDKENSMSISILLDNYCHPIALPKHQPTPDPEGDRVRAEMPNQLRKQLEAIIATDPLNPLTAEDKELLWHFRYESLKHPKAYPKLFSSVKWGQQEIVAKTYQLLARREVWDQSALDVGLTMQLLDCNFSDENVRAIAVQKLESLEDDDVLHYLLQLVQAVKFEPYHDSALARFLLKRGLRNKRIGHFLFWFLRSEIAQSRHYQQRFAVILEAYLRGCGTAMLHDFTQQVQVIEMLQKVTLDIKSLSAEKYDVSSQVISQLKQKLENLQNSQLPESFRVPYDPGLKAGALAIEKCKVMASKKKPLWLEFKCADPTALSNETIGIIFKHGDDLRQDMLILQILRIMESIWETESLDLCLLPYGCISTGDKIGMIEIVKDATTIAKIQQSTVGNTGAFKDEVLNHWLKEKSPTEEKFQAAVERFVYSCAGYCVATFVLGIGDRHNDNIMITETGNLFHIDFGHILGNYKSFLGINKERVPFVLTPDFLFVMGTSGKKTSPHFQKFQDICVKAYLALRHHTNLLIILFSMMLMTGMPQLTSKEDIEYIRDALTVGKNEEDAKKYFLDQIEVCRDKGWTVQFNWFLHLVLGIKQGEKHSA

Sequence of Human mTOR (FLAG-TOR) (P42345 1360-2549 limits assumed): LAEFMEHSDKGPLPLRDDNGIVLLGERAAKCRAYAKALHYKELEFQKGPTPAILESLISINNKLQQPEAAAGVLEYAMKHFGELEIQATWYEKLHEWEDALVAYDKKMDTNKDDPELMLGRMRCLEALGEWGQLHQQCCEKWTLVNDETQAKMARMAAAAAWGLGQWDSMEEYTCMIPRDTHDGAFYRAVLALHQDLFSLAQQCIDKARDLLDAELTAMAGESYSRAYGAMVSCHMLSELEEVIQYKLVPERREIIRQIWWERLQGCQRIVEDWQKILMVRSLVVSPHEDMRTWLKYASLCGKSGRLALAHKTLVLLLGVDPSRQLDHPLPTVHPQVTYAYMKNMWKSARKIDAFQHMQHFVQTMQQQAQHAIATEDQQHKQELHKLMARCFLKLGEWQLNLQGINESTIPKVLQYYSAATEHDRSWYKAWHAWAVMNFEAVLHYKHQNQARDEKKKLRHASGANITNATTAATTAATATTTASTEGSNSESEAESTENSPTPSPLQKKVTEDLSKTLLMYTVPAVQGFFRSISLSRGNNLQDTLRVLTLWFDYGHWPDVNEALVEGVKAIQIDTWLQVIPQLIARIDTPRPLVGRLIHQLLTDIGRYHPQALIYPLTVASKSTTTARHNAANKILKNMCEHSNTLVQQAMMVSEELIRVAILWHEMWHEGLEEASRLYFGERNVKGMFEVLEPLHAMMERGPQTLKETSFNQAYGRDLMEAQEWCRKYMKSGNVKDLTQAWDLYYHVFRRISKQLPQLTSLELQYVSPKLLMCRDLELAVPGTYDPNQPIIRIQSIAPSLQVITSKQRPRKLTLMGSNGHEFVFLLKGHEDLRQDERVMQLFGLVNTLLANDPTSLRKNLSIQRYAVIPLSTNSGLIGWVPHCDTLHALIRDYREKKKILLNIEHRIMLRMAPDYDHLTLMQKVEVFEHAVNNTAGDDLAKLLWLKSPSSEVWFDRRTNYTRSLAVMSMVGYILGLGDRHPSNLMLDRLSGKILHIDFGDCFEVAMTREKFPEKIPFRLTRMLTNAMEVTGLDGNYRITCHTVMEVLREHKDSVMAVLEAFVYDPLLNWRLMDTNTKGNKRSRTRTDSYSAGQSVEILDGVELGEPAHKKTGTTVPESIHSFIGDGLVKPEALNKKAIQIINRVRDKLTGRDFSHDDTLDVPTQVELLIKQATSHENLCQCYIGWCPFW
Sequence of PI3K-α (P42336 whole entry, species assumed): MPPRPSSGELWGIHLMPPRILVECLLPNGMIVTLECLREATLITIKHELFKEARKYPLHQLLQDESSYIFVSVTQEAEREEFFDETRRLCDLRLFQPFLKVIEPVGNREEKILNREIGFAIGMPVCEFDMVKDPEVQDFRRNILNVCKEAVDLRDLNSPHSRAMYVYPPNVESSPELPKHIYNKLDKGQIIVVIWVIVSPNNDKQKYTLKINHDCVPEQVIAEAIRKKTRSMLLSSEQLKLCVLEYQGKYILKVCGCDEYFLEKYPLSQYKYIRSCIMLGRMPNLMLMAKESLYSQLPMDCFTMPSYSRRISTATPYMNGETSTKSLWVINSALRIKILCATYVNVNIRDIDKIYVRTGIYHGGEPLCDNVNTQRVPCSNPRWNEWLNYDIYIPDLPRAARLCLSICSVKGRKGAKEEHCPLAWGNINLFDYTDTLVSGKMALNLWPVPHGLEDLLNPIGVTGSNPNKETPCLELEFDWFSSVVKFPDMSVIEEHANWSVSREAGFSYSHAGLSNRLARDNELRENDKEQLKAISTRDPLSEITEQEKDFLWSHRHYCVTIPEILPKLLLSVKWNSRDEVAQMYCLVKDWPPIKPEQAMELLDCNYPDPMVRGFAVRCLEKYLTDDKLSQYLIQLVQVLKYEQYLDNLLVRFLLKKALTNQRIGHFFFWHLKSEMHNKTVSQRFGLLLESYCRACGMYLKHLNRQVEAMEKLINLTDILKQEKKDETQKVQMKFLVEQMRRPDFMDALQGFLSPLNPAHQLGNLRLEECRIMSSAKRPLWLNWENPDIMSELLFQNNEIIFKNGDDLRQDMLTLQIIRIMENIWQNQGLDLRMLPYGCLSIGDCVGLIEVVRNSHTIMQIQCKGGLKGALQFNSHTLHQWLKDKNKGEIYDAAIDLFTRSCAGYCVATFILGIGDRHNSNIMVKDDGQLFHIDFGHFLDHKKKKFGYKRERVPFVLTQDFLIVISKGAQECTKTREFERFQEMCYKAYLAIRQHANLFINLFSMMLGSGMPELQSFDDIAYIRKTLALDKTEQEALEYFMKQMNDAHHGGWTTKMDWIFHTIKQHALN
Sequence of PI3K-α (P27986 whole entry partner, species assumed): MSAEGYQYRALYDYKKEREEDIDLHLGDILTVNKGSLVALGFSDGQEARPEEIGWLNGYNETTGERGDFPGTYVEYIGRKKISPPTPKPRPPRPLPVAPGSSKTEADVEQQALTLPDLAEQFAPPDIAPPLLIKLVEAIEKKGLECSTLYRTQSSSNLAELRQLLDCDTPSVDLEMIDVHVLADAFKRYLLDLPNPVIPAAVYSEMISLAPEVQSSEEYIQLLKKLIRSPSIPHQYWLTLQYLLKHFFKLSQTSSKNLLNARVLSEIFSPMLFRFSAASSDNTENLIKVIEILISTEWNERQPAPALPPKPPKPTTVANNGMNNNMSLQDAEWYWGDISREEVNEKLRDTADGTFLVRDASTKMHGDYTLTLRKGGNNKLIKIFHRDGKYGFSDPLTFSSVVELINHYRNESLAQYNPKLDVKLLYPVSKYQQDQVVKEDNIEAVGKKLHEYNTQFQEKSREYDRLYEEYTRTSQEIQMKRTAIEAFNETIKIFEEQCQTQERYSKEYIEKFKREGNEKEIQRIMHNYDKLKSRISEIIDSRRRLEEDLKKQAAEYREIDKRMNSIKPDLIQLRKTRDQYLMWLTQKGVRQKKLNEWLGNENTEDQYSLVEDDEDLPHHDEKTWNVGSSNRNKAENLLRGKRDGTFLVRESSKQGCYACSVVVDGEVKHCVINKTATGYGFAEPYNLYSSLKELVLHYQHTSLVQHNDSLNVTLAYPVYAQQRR

Compound | IC50 (Human mTOR (FLAG-TOR)) | IC50 ([1]; MDA-MB-361, 72 h) | IC50 [2] | IC50 (PI3K-α) | IC50 (PI3K-γ) | IC50 ([1]; 72 h)
CC(C)N1CCN(C(=O)c2ccc(NC(=O)Nc3ccc(-c4nc(N5CCOCC5)nc(N5CCOC[C@@H]5C)n4)cc3)cc2)CC1 [Example 618, 1-(4-{[4-(1-methylethyl)piperazin-1-yl]carbonyl}phenyl)-3-(4-{4-[(3S)-3-methylmorpholin-4-yl]-6-morpholin-4-yl-1,3,5-triazin-2-yl}phenyl)urea] | 1 nM | 2 nM | 13 nM | 2 nM | 18.5 nM | –
CCN1CCN(C(=O)c2ccc(NC(=O)Nc3ccc(-c4nc(N5CCOCC5)nc(N5CCOC[C@@H]5C)n4)cc3)cc2)CC1 [Example 620, 1-{4-[(4-ethylpiperazin-1-yl)carbonyl]phenyl}-3-(4-{4-[(3S)-3-methylmorpholin-4-yl]-6-morpholin-4-yl-1,3,5-triazin-2-yl}phenyl)urea] | 3 nM | 4 nM | 16 nM | 4 nM | 32.5 nM | –
C[C@H]1COCCN1c1nc(-c2ccc(NC(=O)Nc3ccc(C(=O)NCCCN(C)C)cc3)cc2)nc(N2CCOCC2)n1 [Example 621, N-[3-(dimethylamino)propyl]-4-{[(4-{4-[(3S)-3-methylmorpholin-4-yl]-6-morpholin-4-yl-1,3,5-triazin-2-yl}phenyl)carbamoyl]amino}benzamide] | 1 nM | – | 35 nM | 3.5 nM | 43.5 nM | 8 nM
C[C@@H]1COCCN1c1nc(-c2ccc(NC(=O)Nc3ccc(C(=O)N4CCN(C)CC4)cc3)cc2)nc(N2CCOC[C@@H]2C)n1 [Example 623, 1-(4-{4-[(3R)-3-methylmorpholin-4-yl]-6-[(3S)-3-methylmorpholin-4-yl]-1,3,5-triazin-2-yl}phenyl)-3-{4-[(4-methylpiperazin-1-yl)carbonyl]phenyl}urea] | 1 nM | – | 32 nM | 12.5 nM | 104 nM | 6 nM
CCCN(CCC)C1CCN(C(=O)c2ccc(NC(=O)Nc3ccc(-c4nc(N5CCOC[C@@H]5C)nc(N5CCOC[C@@H]5C)n4)cc3)cc2)CC1 [Example 624, 1-(4-{4,6-bis[(3S)-3-methylmorpholin-4-yl]-1,3,5-triazin-2-yl}phenyl)-3-(4-{[4-(dipropylamino)piperidin-1-yl]carbonyl}phenyl)urea] | 1 nM | 4 nM | 19 nM | 17.5 nM | 58.5 nM | –

Second part, the compound after the results:

IC50 (Human mTOR (FLAG-TOR)) | IC50 ([1]; MDA-MB-361, 72 h) | IC50 [2] | IC50 (PI3K-α) | IC50 (PI3K-γ) | IC50 ([1]; 72 h) | Compound
3 nM | – | 43 nM | 16.5 nM | 102 nM | 12 nM | CCN1CCN(C(=O)c2ccc(NC(=O)Nc3ccc(-c4nc(N5CCOC[C@H]5C)nc(N5CCOC[C@@H]5C)n4)cc3)cc2)CC1 [Example 625, 1-{4-[(4-ethylpiperazin-1-yl)carbonyl]phenyl}-3-(4-{4-[(3R)-3-methylmorpholin-4-yl]-6-[(3S)-3-methylmorpholin-4-yl]-1,3,5-triazin-2-yl}phenyl)urea]
2 nM | – | 55 nM | 18.5 nM | 102 nM | 16 nM | CCCCN1CCN(C(=O)c2ccc(NC(=O)Nc3ccc(-c4nc(N5CCOC[C@H]5C)nc(N5CCOC[C@@H]5C)n4)cc3)cc2)CC1 [Example 627, 1-{4-[(4-butylpiperazin-1-yl)carbonyl]phenyl}-3-(4-{4-[(3R)-3-methylmorpholin-4-yl]-6-[(3S)-3-methylmorpholin-4-yl]-1,3,5-triazin-2-yl}phenyl)urea]
4 nM | – | 133 nM | 26 nM | 95 nM | 28 nM | CCCCN1CCN(C(=O)c2ccc(NC(=O)Nc3ccc(-c4nc(N5CCOC[C@@H]5C)nc(N5CCOC[C@@H]5C)n4)cc3)cc2)CC1 [Example 629, 1-(4-{4,6-bis[(3S)-3-methylmorpholin-4-yl]-1,3,5-triazin-2-yl}phenyl)-3-{4-[(4-butylpiperazin-1-yl)carbonyl]phenyl}urea]
